{"source": "ChEMBL document CHEMBL5653615", "about": "(J Biol Chem, 2013)", "key": {"[1]": {"molecular_target": "T1, Mitogen-activated protein kinase 13 (Homo sapiens) (UniProt O15264)", "T1 sequence (whole entry)": "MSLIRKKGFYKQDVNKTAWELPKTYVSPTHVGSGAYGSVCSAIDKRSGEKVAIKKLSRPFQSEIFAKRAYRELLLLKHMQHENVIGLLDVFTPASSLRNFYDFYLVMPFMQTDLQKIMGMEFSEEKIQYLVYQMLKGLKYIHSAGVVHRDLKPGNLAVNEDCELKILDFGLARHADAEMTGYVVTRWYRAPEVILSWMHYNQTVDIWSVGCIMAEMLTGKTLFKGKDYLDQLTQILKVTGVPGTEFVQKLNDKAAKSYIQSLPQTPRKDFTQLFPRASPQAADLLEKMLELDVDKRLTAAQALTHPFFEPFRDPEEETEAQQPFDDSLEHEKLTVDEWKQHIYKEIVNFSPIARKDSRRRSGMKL", "test": "Inhibition of human MAPK13 at 1.82 nM by HotSpot assay relative to control"}, "[2]": {"molecular_target": "Mitogen-activated protein kinase 9 (Homo sapiens) (UniProt P45984)", "sequence (P45984 whole entry, looked up)": "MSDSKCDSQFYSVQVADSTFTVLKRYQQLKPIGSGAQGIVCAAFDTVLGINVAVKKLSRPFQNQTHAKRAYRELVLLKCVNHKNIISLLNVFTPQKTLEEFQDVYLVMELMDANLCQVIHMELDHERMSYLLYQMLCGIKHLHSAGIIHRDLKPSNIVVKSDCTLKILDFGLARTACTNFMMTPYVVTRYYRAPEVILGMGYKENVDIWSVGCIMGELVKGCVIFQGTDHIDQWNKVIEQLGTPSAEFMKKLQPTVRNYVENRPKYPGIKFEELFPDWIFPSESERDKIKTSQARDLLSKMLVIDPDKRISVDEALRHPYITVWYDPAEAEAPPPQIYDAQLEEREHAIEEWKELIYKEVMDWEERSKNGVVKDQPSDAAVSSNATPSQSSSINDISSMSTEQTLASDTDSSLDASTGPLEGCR", "test": "Inhibition of human JNK2 at 1.82 nM by HotSpot assay relative to control"}, "[3]": {"molecular_target": "T2, Testis-specific serine/threonine-protein kinase 2 (Homo sapiens) (UniProt Q96PF2)", "T2 sequence (whole entry)": "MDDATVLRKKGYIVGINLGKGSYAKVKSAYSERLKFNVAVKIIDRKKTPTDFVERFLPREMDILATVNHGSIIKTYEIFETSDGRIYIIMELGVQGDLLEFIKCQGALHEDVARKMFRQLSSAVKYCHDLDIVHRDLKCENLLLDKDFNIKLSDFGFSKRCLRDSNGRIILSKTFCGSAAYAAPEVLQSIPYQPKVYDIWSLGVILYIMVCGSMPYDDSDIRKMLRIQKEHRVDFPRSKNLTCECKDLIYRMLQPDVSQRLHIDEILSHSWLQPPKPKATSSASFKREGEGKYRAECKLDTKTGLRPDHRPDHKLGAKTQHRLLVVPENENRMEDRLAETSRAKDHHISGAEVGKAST", "test": "Inhibition of human TSSK2 at 1.82 nM by HotSpot assay relative to control"}, "[4]": {"molecular_target": "T3, Serine/threonine-protein kinase Nek3 (Homo sapiens) (UniProt P51956)", "T3 sequence (whole entry)": "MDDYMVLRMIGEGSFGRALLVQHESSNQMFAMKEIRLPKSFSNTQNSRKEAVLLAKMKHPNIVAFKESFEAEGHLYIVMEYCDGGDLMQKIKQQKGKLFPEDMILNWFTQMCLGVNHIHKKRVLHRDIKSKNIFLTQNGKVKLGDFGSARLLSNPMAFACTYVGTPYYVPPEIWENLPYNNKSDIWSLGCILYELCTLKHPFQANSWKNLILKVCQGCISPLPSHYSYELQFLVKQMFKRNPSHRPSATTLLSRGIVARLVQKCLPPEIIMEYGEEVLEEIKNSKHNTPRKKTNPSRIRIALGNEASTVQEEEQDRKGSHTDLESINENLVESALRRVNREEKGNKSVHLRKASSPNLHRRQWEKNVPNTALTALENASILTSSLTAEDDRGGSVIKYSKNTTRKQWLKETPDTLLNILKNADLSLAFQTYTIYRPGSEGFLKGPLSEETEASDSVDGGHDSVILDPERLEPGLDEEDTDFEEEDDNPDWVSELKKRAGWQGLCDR", "test": "Inhibition of human NEK3 at 1.82 nM by HotSpot assay relative to control"}, "[5]": {"molecular_target": "T4, Ephrin type-B receptor 2 (Homo sapiens) (UniProt P29323)", "T4 sequence (whole entry)": "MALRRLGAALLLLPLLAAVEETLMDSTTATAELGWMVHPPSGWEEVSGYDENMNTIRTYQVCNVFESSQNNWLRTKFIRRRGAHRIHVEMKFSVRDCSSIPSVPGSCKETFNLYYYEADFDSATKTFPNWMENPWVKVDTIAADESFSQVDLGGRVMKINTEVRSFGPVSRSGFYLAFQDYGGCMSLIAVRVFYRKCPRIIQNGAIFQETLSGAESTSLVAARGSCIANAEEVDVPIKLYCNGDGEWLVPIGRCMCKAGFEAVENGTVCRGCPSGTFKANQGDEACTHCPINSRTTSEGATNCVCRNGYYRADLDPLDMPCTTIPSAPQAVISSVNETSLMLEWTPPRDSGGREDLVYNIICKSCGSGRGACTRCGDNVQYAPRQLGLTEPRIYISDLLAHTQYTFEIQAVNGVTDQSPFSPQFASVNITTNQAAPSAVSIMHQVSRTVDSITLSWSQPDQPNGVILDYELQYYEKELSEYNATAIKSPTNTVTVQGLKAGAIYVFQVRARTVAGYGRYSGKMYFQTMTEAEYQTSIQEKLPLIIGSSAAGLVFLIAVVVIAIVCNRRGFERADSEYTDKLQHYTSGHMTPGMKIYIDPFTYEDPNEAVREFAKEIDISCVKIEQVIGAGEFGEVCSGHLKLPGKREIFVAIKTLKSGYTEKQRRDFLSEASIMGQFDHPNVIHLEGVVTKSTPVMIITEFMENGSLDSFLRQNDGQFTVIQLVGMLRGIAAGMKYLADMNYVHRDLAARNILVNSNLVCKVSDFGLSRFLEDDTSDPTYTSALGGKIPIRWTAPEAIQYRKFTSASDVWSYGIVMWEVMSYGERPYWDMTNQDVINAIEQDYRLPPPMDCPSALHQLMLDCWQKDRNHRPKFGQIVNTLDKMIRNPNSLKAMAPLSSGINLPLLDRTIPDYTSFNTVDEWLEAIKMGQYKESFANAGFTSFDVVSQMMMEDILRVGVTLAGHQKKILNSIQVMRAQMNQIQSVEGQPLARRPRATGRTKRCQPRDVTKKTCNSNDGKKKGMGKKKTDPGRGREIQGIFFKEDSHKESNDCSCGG", "test": "Inhibition of human EPHB2 at 18.6 nM by HotSpot assay relative to control"}, "[6]": {"molecular_target": "SRSF protein kinase 3 (Homo sapiens) (UniProt Q9UPE1)", "sequence (Q9UPE1 whole entry)": "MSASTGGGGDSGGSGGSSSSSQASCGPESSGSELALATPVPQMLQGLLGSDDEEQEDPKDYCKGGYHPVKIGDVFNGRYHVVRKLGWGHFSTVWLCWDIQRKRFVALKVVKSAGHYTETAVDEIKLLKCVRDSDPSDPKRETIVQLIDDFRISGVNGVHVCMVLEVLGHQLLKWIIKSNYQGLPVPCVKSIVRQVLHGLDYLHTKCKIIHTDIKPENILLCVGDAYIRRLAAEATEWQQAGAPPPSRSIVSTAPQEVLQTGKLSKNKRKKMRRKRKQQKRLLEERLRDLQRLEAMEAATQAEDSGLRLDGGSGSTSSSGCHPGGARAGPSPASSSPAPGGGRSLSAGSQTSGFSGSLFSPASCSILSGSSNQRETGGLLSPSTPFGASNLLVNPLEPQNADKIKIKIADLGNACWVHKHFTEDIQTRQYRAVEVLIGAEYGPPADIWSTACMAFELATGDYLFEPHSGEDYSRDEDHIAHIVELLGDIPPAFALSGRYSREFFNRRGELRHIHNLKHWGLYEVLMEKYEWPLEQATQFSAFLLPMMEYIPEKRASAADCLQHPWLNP", "test": "Inhibition of human STK23 at 18.6 nM by HotSpot assay relative to control"}}, "data": [{"smiles": "C[C@@]1(C(=O)Nc2ccc(F)nc2)CCCN1c1nc(Nc2cc(C3CC3)n[nH]2)c2cccn2n1", "values": [{"measurement": "inhibition", "setting": "[1]", "result": -4.13, "unit": "%"}, {"measurement": "inhibition", "setting": "[2]", "result": -2.41, "unit": "%"}, {"measurement": "inhibition", "setting": "[3]", "result": -1.46, "unit": "%"}, {"measurement": "inhibition", "setting": "[4]", "result": 1.63, "unit": "%"}]}, {"smiles": "C[C@]1(O)C[C@@H](c2nc(-c3ccc4ccc(-c5ccccc5)nc4c3)c3c(N)nccn32)C1", "values": [{"measurement": "inhibition", "setting": "[5]", "result": -7.65, "unit": "%"}, {"measurement": "inhibition", "setting": "[6]", "result": -2.07, "unit": "%"}]}]}
